From patent US11173124B2, “Oral delivery of GLP-1 peptide analogs” (MEDIMMUNE LIMITED, priority 2017, dated 2021)
Starred links: 1 amine or outer side, 2 acyl side, 3 side chain; linkers in the order of their positions; H or OH if unused. Non-standard residues stand in square brackets, D forms with d. Residues, ends and D or L forms follow the SMILES beside them. Groups on a side chain read outwards from the residue. ξ: configuration not given here. *: point of attachment. γGlu = O=C(O)[C@H](CCC(=O)[*:2])N[*:1]; Palmitoyl = CCCCCCCCCCCCCCCC(=O)*; ξαMeF = CC(N)(Cc1ccccc1)C(=O)O; ξαMeK = CC(N)(CCCCN)C(=O)O; ξαMeS = CC(N)(CO)C(=O)O; AEEA = NCCOCCOCC(=O)O; Aib = CC(C)(N)C(=O)O

Assays:
in vivo = details: dog, po
Description: The following materials and methods were used for quantitative measurements of GLP-1 peptide analogs in plasma (e.g., rat or dog plasma) in the Examples below. These methods used a SCIEX 6600 TripleTOF mass spectrometer coupled with a Shimadzu ultra-high performance liquid chromatography (UHPLC). The specificity of the method was ensured by the retention time, the selected mass for Single-Reaction-Monitoring (SRM) mode, and the selected fragment mass in MS/MS (MS^2) mode. […] The analytes of interest were analyzed from plasma, a complex biological matrix. Although protein precipitation using organic solvent can reduce matrix interference, significant background still persists. The high mass accuracy offered by the TripleTOF mass spectrometers further eliminated background noise, thus enhancing signal: noise (S/N) and allowing improved quantification.
The plasma extraction procedure used the following steps: • Samples, standards, and quality controls were incubated until they reached room temperature. They were then incubated at 60° C. for 2 minutes and cooled down to room temperature, vortexed, and spun down. • 70 μL of samples, standards, or quality controls were transferred into a 1 mL 96-well plate. • In each well, 420 uL of Precipitation Solution was added. The plate was sealed and shook for 10 minutes on a plate shaker at 600 rpm. • The plate was centrifuged at 18G, 2500 RFC, 20° C. for 10 minutes. • The plate was carefully removed, and the upper clear supernatant was extracted with a 200 uL multichannel pipette into a new 96-well protein lobind plate. The supernatant was extracted twice for each well, and the supernatants were combined. • The Plate was placed in TurboVap and the extracted supernatant was dried completely with heated (65° C.) Nitrogen gas at 60 Fahrenheit (Fh). • After the plate was completely dry, the plates were covered and incubated at room temperature for at least 30 minutes until the plate returned back to ambient temperature. • 150 μL of Reconstitution solution was added to each well. The plate was covered with a pierceable place seal and shaken at 600 rpm for 10 minutes. • The samples were submitted to the LC-MS/MS on the same day of Preparation
Quantification of the data obtained using the high resolution SCIEX 6600 instrument was then performed as follows: • For the quantification, extracted ion chromatograms (XIC) using 0.2 Da m/z extraction window centered on the accurate mass of each fragment ion were generated. Accurate mass was calculated from the structure of the compound. […] Concentrations of the target analyte in unknown samples were obtained by regression analysis using linear fits of peak areas vs. analyte concentration, weighted 1/(concentration). • The quality of the assay was controlled by the quality control samples. • Either Experiment 1 or Experiment 2 could be used for the quantification of the GLP-1 peptide analogs in high resolution mode.
MEDI7219 (SEQ ID NO:2) formulations were studied in the following canine study, which was designed to compare different tablet delivery systems and peptides in enterically coated tablet formulation compositions delivered orally. […]
The efficacy of sodium caprate as a permeation enhancer was also evaluated.

[1] = test system: Gastrointestinal (GI) tract tissues; assay: Microscopic evaluation of gastrointestinal tract tissues after intraduodenal dosing (Example 4); type: in vivo; details: rat, following administration of 50 mg/kg sodium caprate

AUC (in vivo) | PK variability (in vivo) | half-life (in vivo) | Compound | Gastrointestinal (GI) tract tissues upon microscopic evaluation [1]
23700 ng·h/mL | 52.3% | 1980 min | CCCCCCCCCCCCCCCC(=O)N[C@@H](CCC(=O)NCCOCCOCC(=O)NCCOCCOCC(=O)NCCCC[C@H](NC(=O)[C@H](C)NC(=O)[C@@H](NC(=O)C(C)(Cc1ccccc1)NC(=O)[C@H](CCC(=O)O)NC(=O)C(C)(CCCCN)NC(=O)[C@H](C)NC(=O)[C@H](C)NC(=O)[C@H](CCC(=O)O)NC(=O)CNC(=O)[C@H](CCC(=O)O)NC(=O)[C@H](CC(C)C)NC(=O)[C@H](CCCCNC(=O)COCCOCCNC(=O)COCCOCCNC(=O)CC[C@H](NC(=O)CCCCCCCCCCCCCCC)C(=O)O)NC(=O)[C@H](CO)NC(=O)C(C)(CO)NC(=O)[C@@H](NC(=O)[C@H](CC(=O)O)NC(=O)[C@H](CO)NC(=O)[C@@H](NC(=O)C(C)(Cc1ccccc1)NC(=O)[C@H](CO)NC(=O)CNC(=O)[C@H](CCC(=O)O)NC(=O)C(C)(C)NC(=O)[C@@H](N)Cc1c[nH]cn1)[C@@H](C)O)C(C)C)[C@@H](C)CC)C(=O)N[C@H](C(=O)N[C@H](C(=O)N[C@@H](CCC(=O)O)C(=O)NCC(=O)NCC(N)=O)C(C)C)C(C)C)C(=O)O (stereo partly shown) [SEQ ID NO: 10, Free-H-[AIB]-EGS-[αMePhe]-TSDV-[αMeSer]-SK[(PEG2)2-γE-Palmitoyl]-LEGEAA-[αMeLys]-E-[αMePhe]-IAK[(PEG2)2-γE-Palmitoyl]-VVEGG-amide] (H-H[Aib]EGS[ξαMeF]TSDV[ξαMeS]SK([AEEA-AEEA-γGlu-Palmitoyl])LEGEAA[ξαMeK]E[ξαMeF]IAK([AEEA-AEEA-γGlu-Palmitoyl])VVEGG-NH2) | –
– | – | – | CCCCCCCCCC(=O)[O-].[Na+] [sodium caprate] | looked normal
